According to patent US20090156399A1, “Synergistic Insecticide Mixtures” (Bayer CropScience AG, priority 2005, published 2009):

Test system: Myzus persicae
Assay: Myzus persicae test (cabbage leaf dip)
Format: in vivo
From the text: The expected activity for a given combination of two active compounds can be calculated (cf. COLBY, S. R.; “Calculating Synergistic and Antagonistic Responses of Herbicide Combinations”, Weeds 15, pages 20-22, 1967):
if • X=the kill rate, expressed in % of the untreated control, when employing active compound A at an application rate of m ppm, • Y=the kill rate, expressed in % of the untreated control, when employing active compound B at an application rate of n ppm, • E=the kill rate, expressed in % of the untreated control, when employing active compounds A and B at application rates of m and n ppm, then
If the actual insecticidal kill rate is higher than the calculated one, the kill rates of the combination are superadditive, i.e. a synergistic effect is present. In this case, the kill rate that is actually observed has to be higher than the value, calculated using the formula above, for the expected kill rate (E).
To produce a suitable preparation of active compound, 1 part by weight of active compound is mixed with the stated amounts of solvent and emulsifier, and the concentrate is diluted with emulsifier-containing water to the desired concentration. […]
After the desired period of time, the kill in % is determined. […] The determined kill rates are entered into Colby's formula (see page 27).

Structure (SMILES): CN/C(=N\[N+](=O)[O-])NCc1cnc(Cl)s1 [Clothianidin]
- Kill in % after 6d (0.16 ppm, cabbage leaves dipped, after 6 d): 0%

Structure (SMILES): N#C/N=C1\SCCN1Cc1ccc(Cl)nc1 [Thiacloprid]
- Kill in % after 1d (0.8 ppm, cabbage leaves (Brassica oleracea) dipped, after 1 d): 30%
